The values that follow come from patent EP3549947B1, “POLYRGD PEPTIDES OBTAINED BY CHEMICAL AND BIOTECHNOLOGY METHODS WITH INJURY REDUCING AND/OR NEUROPROTECTIVE EFFECTS AND A KIT FOR THEIR ACTIVITY EVALUATION” (Uniwersytet Gdanski, priority 2018, dated 2019).

“Also recorded” adds a separate entry of the source.

One series concerns primary neural cells. The experiment in a line: Multifactorial in vitro model of neurological injury (six injury factors), CellTiterBlue viability. It is filed as cell-based, Wistar rat. Particulars: 1-hour injury factor (glucose deprivation, acidosis pH 6.35 + 200 mM sodium lactate, 10 mM sodium azide, 400 µM glutamic acid, 800 µM NMDA or 800 µM kainic acid), then 20 hour incubation with 100 µM peptide (RGD10: 1 µg/ml). The procedure: (§1) Primary neural cortical cultures were obtained from Wistar rat E18.5 embryos. To this end, pregnant rat females were anesthetized and euthanized in a CO2 chamber. In some cases, euthanasia was performed by isoflurane. The cortex tissue was excised from the isolated embryos and washed with HBSS buffer, supplemented with a mixture of penicillin and streptomycin, and HEPES. Afterwards, the cortex tissue was trypsinized for 10 minutes at 37 °C and homogenized mechanically in order to disintegrate the tissue to the form of a cell suspension. The cells were the centrifuged at 300 rcf for 4 minutes, resuspended once more in HBSS and quantified in a Bürker chamber in order to obtain a cell suspension of proper density. […]
(§2) A subject of the invention constitutes a diagnostic methodology for measuring the neuroprotective activity of peptides in a model of several factors co-occurring during any neurological injury. […] These injury conditions were optimized so that the strength of each injury factor causes a 30-40% decrease in response in a CellTiterBlue-based evaluation (a CTB fluorophore in a modified biochemical assay of the MTT type) of cellular viability, relying on quantitative analysis of mitochondrial metabolic functions. […] The fluorescence intensity of the CTB agent is measured spectrofluorimetically (560ex/590em) and is proportional to the number of living cells. […]
(In general: Resazurin is reduced to fluorescent resorufin, in cell work by metabolically active cells.)

In series [1] the test system is primary neural cortical cultures. The experiment in a line: Viability assay (CellTiterBlue) of primary neural cultures exposed to polyRGD peptides. It is filed as cell-based, Wistar rat. The conditions noted are these: reference peptide at 50 µM, 20 hour exposure. As to the method:
as §1, §2

`N=C(N)NCCC[C@H](N)C(=O)NCC(=O)N[C@@H](CC(=O)O)C(N)=O` [RGD1, H2N-RGD-amide]: the “injury-reducing and/or neuroprotective activity (neural cell viability)” value was “significant increase in neural cell viability with regard to all injury factors; also recorded: significant injury-reducing and/or neuroprotective efficacy with respect to all six injury factors” in the series on primary neural cells and “broadest spectrum of activity” with primary neural cells (listed as RGD 1).

Consider Tat(49-57)NH2 [TAT peptide], for which the “cytotoxic effects (viability of neural culture)” value in series [1] is “None of the analyzed peptides displayed significant cytotoxic effects in the assessed concentration ranges, as well as a reference factor”.
